Source: article PMC6220303 (EMBO Molecular Medicine, 2018)
Like-named read-outs stand apart in the source and are kept apart here.

Experiments:
[1] = tested on: healthy participants ≥ 60 years; test: Adverse events after once-daily dosing over two weeks (Appendix Table S7); assay type: in vivo, human
clinical = assay type: in vivo, human; conditions: for Mean concentration: AUC divided by 24 hours; for AUC(0-t): AUC 0–24h; for concentration at 3 months: read-out: steady-state plasma level
Experimental: The lower limit of quantification (LLOQ) was 1 ng/ml in plasma and 2 ng/ml in urine and CSF, except for the 3‐month study where the method for CSF was more sensitive (LLOQ 0.1 ng/ml). Plasma PK parameters were calculated using actual recorded sampling times and non‐compartmental methods with Phoenix WinNonlin version 6.4 (Certara, Inc., Princeton, NJ, USA).
For further details, see the Appendix Table S10 in Appendix and the accompanying clinical protocols synopsis (Appendix Table S11).

With C[C@@]1(c2nc(NC(=O)c3ncc(C(F)(F)F)cc3Cl)ccc2F)CO[C@@](C)(C(F)(F)F)C(N)=N1 [CNP520] the “AE incidence: Ear and labyrinth disorders” value ([1]; 10 mg once daily, N = 9) was 0 (0.0) n (%), the “AE incidence: Eye disorders” value ([1]; 10 mg once daily, N = 9) was 1 (11.1) n (%) and the “AE incidence: Gastrointestinal disorders” value ([1]; 10 mg once daily, N = 9) was 3 (33.3) n (%). The “AE incidence: General disorders and administration site conditions” value ([1]; 10 mg once daily, N = 9) was 0 (0.0) n (%), the “AE incidence: Infections and infestations” value ([1]; 10 mg once daily, N = 9) was 2 (22.2) n (%) and the “AE incidence: Metabolism and nutrition disorders” value ([1]; 10 mg once daily, N = 9) was 0 (0.0) n (%). The “AE incidence: Nervous system disorders” value ([1]; 10 mg once daily, N = 9) was 4 (44.4) n (%), the “AE incidence: Psychiatric disorders” value ([1]; 10 mg once daily, N = 9) was 1 (11.1) n (%) and the “AE incidence: Renal and urinary disorders” value ([1]; 10 mg once daily, N = 9) was 0 (0.0) n (%). For the same molecule, the “AE incidence: Skin and subcutaneous tissue disorders” value ([1]; 10 mg once daily, N = 9) was 0 (0.0) n (%), the “AE incidence: Ear and labyrinth disorders” value ([1]; 30 mg once daily, N = 9) was 1 (11.1) n (%) and the “AE incidence: Eye disorders” value ([1]; 30 mg once daily, N = 9) was 0 (0.0) n (%). The “AE incidence: Gastrointestinal disorders” value ([1]; 30 mg once daily, N = 9) was 2 (22.2) n (%), the “AE incidence: General disorders and administration site conditions” value ([1]; 30 mg once daily, N = 9) was 1 (11.1) n (%) and the “AE incidence: Infections and infestations” value ([1]; 30 mg once daily, N = 9) was 2 (22.2) n (%). The “AE incidence: Metabolism and nutrition disorders” value ([1]; 30 mg once daily, N = 9) was 0 (0.0) n (%), the “AE incidence: Nervous system disorders” value ([1]; 30 mg once daily, N = 9) was 0 (0.0) n (%) and the “AE incidence: Psychiatric disorders” value ([1]; 30 mg once daily, N = 9) was 0 (0.0) n (%). For the same molecule, the “AE incidence: Respiratory, thoracic and mediastinal disorders” value (shortened to “AE incidence: Respiratory”) ([1]; 30 mg once daily, N = 9) was 0 (0.0) n (%), the “AE incidence: Skin and subcutaneous tissue disorders” value ([1]; 30 mg once daily, N = 9) was 0 (0.0) n (%) and the “Participants with any AE(s)” value ([1]; 30 mg once daily, N = 9) was 5 (55.6) n (%). For the same molecule, the “AE incidence: Ear and labyrinth disorders” value ([1]; 90 mg once daily, N = 9) was 0 (0.0) n (%), the “AE incidence: Eye disorders” value ([1]; 90 mg once daily, N = 9) was 1 (11.1) n (%) and the “AE incidence: Gastrointestinal disorders” value ([1]; 90 mg once daily, N = 9) was 3 (33.3) n (%). For the same molecule, the “AE incidence: General disorders and administration site conditions” value ([1]; 90 mg once daily, N = 9) was 0 (0.0) n (%), the “AE incidence: Infections and infestations” value ([1]; 90 mg once daily, N = 9) was 2 (22.2) n (%) and the “AE incidence: Metabolism and nutrition disorders” value ([1]; 90 mg once daily, N = 9) was 0 (0.0) n (%). For the same molecule, the “AE incidence: Nervous system disorders” value ([1]; 90 mg once daily, N = 9) was 1 (11.1) n (%), the “AE incidence: Psychiatric disorders” value ([1]; 90 mg once daily, N = 9) was 0 (0.0) n (%) and the “AE incidence: Renal and urinary disorders” value ([1]; 90 mg once daily, N = 9) was 1 (11.1) n (%). The “AE incidence: Respiratory” value ([1]; 90 mg once daily, N = 9) was 1 (11.1) n (%), the “AE incidence: Skin and subcutaneous tissue disorders” value ([1]; 90 mg once daily, N = 9) was 0 (0.0) n (%) and the “Participants with any AE(s)” value ([1]; 90 mg once daily, N = 9) was 6 (66.7) n (%). For the same molecule, the “AE incidence: Eye disorders” value ([1]; 300 mg once daily, N = 8) was 0 (0.0) n (%), the “AE incidence: Gastrointestinal disorders” value ([1]; 300 mg once daily, N = 8) was 2 (25.0) n (%) and the “AE incidence: General disorders and administration site conditions” value ([1]; 300 mg once daily, N = 8) was 1 (12.5) n (%). For the same molecule, the “AE incidence: Infections and infestations” value ([1]; 300 mg once daily, N = 8) was 0 (0.0) n (%), the “AE incidence: Metabolism and nutrition disorders” value ([1]; 300 mg once daily, N = 8) was 2 (25.0) n (%) and the “AE incidence: Nervous system disorders” value ([1]; 300 mg once daily, N = 8) was 3 (37.5) n (%). For the same molecule, the “AE incidence: Psychiatric disorders” value ([1]; 300 mg once daily, N = 8) was 0 (0.0) n (%), the “AE incidence: Renal and urinary disorders” value ([1]; 300 mg once daily, N = 8) was 1 (12.5) n (%) and the “AE incidence: Respiratory” value ([1]; 300 mg once daily, N = 8) was 0 (0.0) n (%). The “AE incidence: Skin and subcutaneous tissue disorders” value ([1]; 300 mg once daily, N = 8) was 2 (25.0) n (%), the “Participants with any AE(s)” value ([1]; 300 mg once daily, N = 8) was 6 (75.0) n (%) and the Mean concentration (clinical; 2 mg, 3 months, Day 91) was 25.6 nM. For the same molecule, the Mean concentration (clinical; 10 mg, 3 months, Day 91) was 123 nM, the Mean concentration (clinical; 10 mg, 14 days, Day 14) was 114 nM and the Mean concentration (clinical; 30 mg, 14 days, Day 14) was 292 nM. It also gave a Mean concentration (clinical; 35 mg, 3 months, Day 91) of 371 nM, a Mean concentration (clinical; 85 mg, 3 months, Day 91) of 910 nM and a Mean concentration (clinical; 90 mg, 14 days, Day 14) of 762 nM. The Mean concentration (clinical; 300 mg, 14 days, Day 14) was 2312 nM, the Tmax (clinical; both sexes, human, plasma, oral, 30 mg, 14 days, Day 14, median (min–max)) was 3 h and the Cmax (clinical; both sexes, human, plasma, oral, 30 mg, 14 days, Day 14, ≥ 60 years, mean (CV%)) was 211 ng/mL. It also gave an AUC(0-t) (clinical; both sexes, human, plasma, oral, 30 mg, 30 mg, 14 days, Day 14, mean (CV%)) of 3580 ng·h/mL, a half-life (clinical; both sexes, human, plasma, oral, participants ≥ 60 years of age, single dose, read-out: mean terminal T 1/2) of 81.4 to 109 h and a concentration at 3 months (clinical; both sexes, human, plasma, oral, 2-mg dose daily, participants ≥ 60 years) of 11.9 ng/mL. It also gave a concentration at 3 months (clinical; both sexes, human, plasma, oral, 2-mg dose daily) of 23 nM, a concentration at 3 months (clinical; both sexes, human, plasma, oral, 85-mg dose daily, participants ≥ 60 years) of 425 ng/mL and a concentration at 3 months (clinical; both sexes, human, plasma, oral, 85-mg dose daily) of 828 nM. For the same molecule, the “free C max” value (clinical; human plasma, 85 mg, 3-month study) was 48 nM, the Tmax (clinical; human, plasma, oral, 2 mg, 3 months, Day 91, median (min–max)) was 2.5 h and the Cmax (clinical; human, plasma, oral, 2 mg, 3 months, Day 91, ≥ 60 years, mean (CV%)) was 16.6 ng/mL. It also gave an AUC(0-t) (clinical; human, plasma, oral, 2 mg, 2 mg, 3 months, Day 91, mean (CV%)) of 313 ng·h/mL, a Tmax (clinical; human, plasma, oral, 10 mg, 3 months, Day 91, median (min–max)) of 2.5 h and a Cmax (clinical; human, plasma, oral, 10 mg, 3 months, Day 91, ≥ 60 years, mean (CV%)) of 81 ng/mL. It also gave a Tmax (clinical; human, plasma, oral, 10 mg, 14 days, Day 14, median (min–max)) of 2.53 h, a Cmax (clinical; human, plasma, oral, 10 mg, 14 days, Day 14, ≥ 60 years, mean (CV%)) of 84.3 ng/mL and an AUC(0-t) (clinical; human, plasma, oral, 10 mg, 10 mg, 3 months, Day 91, mean (CV%)) of 1500 ng·h/mL. It also gave an AUC(0-t) (clinical; human, plasma, oral, 10 mg, 10 mg, 14 days, Day 14, mean (CV%)) of 1400 ng·h/mL, a Cmax (clinical; human, plasma, oral, 10 mg, single dose 10 mg, adults (6), mean (%CV), read-out: Cmax) of 20.9 ng/mL and a Tmax (clinical; human, plasma, oral, 10 mg, single dose 10 mg, adults (6), median (min–max), read-out: Tmax) of 4 h.
